Reference: patent publication US8742167B2, “Therapeutic formulations based on asiatic acid and selected salts thereof” (Shanghai Institute of Pharmaceutical Industry, priority 2008, dated 2014)
Values after ≈ are worked out from the molar mass of the structure shown. Values joined by “and” are separate entries in the source; they are usually repeats but may differ in a detail not shown here. Equal entries are not always repeated. “Also recorded” adds a separate entry of the source. Where two headings read alike, the source gives them in different places. Marks after values point to notes of the source that are not given here.

Columns and labels:
[1] = tested on: pulmonary fibrosis induced by bleomycin in rats; test: Pathological analysis of lung (HE staining; collagen fiber and elastic fiber dual staining); assay type: in vivo, SD rats; conditions: for collagen fiber and elastic fiber staining / lung pathology, HE staining: administration on the next day after establishing model
Experimental: (§1) Male SD rats, body weight 250-300 g. The animals were anesthetized with 3% seconal, laid flat and fixed onto the operating table. The necks of the animals were disinfected with alcohol and cut to expose tracheae. A needle was inserted via the space between tracheal rings centripetally, and 5 mg/kg of bleomycin was injected. The rats were kept upright and rotated, in order to keep the solution uniformly distributed in the lungs. Then the incisions were sutured.
(§2) After the rats regained consciousness, they were randomly grouped. The animals were divided into (i) a group receiving administration on the next day after establishing the model and (ii) a group receiving administration at 7 days after the model was established. Included were 27, 9, and 3 mg/kg p.o.×28 d asiatic acid groups, 0.6 mg/kg p.o.×28 d dexamethasone group, 36 mg/kg p.o.×28 d asiaticoside group, model group, and blank group. Normal saline was administered for the model and blank groups. On the 28th day after asiatic acid and asiaticoside administration, survival and weight ratio of lungs were measured; pathological examination and serological examination were performed.
The lung tissues were fixed in 10% formalin for 1 week. […] The thickness of sections was […]. Routine hematoxylin-eosin (HE) staining was performed. Dual special staining of collagen fibers and elastic fibers were conducted in order to detect the degree of fibrosis. The staining of the two groups of sections was observed and the results were as follows.

[2] = tested on: bleomycin-induced pulmonary fibrosis in rats; test: Mortality during experiment days 7-28, bleomycin-induced pulmonary fibrosis in rats; assay type: in vivo, SD rats
Experimental: as §1, §2

[3] = Solubility in water and methanol (saturated solutions, HPLC); assay type: physicochemical
Experimental: Approximately 5 mg of asiatic acid were transferred into a 25 mL volumetric flask, and 1 mL, of methanol was added and mixed well, until the acid had dissolved in the methanol. The volumetric flask then was brought to volume with mobile phase and mixed well. [table] Saturated solutions obtained from starting material and salt in methanol and water were filtered and diluted accordingly with mobile phase. No dilution was performed for asiatic acid in water. Samples were prepared in triplicate except for the sodium salt prepared in methanol, for which two preparations were done.

TNF-α = test: Serological test (ELISA kit) of TNF-α in rats of bleomycin-induced pulmonary fibrosis; assay type: in vivo, SD rats; conditions: for TNF-α (2nd day) X ± SD / TNF-α (7th day) X ± SD: serum; for TNF-α (2nd day) X ± SD: dosing from 2nd day; for TNF-α (7th day) X ± SD: dosing from 7th day; for serum levels of TNF-α (words): treatment initiated one day or seven days after bleomycin
Experimental: TNF-α Kit, Human 96T ELISA kit imported by Shanghai Jingmei
as §1, §2
(§3) Serum samples were prepared according to a standard protocol (centrifuged 3000 rpm, 10 minutes after collection) and were stored at −20° C. Testing was conducted in accordance with kit instructions.

[4] = tested on: bleomycin-induced pulmonary fibrosis in rats; test: Lung weight index of bleomycin-induced pulmonary fibrosis in rats; assay type: in vivo, SD rats; conditions: for lung weight ratio (%): (lung weight/body weight)x100%
Experimental: as §1, §2
Effect of on lung weight index of bleomycin-induced pulmonary fibrosis in rats treated with asiatic acid Body weight and lung weight were measured after the rats were sacrificed. Lung weight ratio=(lung weight/body weight)×100%.

Type III collagen = Type III collagen content, bleomycin rat model; assay type: in vivo, SD rats; conditions: for Type III collagen content X ± SD: treatment starting on Day 7
Experimental: as §1, §2

Hydroxyproline = test: Measured value of hydroxyproline in experiment of asiatic acid antagonizing fibrosis; assay type: in vivo, SD rats; parameters: Measured Value of Hydroxyproline (on 2nd day), single animals / Measured Value of Hydroxyproline (on 2nd day), X / Measured Value of Hydroxyproline (on 7th day), single animals / Measured Value of Hydroxyproline (on 7th day), X: unit not given here; conditions: for Measured Value of Hydroxyproline (on 2nd day), X / Measured Value of Hydroxyproline (on 7th day), X: group mean; for Measured Value of Hydroxyproline (on 2nd day), single animals / Measured Value of Hydroxyproline (on 7th day), single animals: individual rats 1-10
Experimental: as §1, §2

TFG-β = test: Serological test (ELISA kit) of TFG-β in rats of bleomycin-induced pulmonary fibrosis; assay type: in vivo, SD rats; conditions: for TFG-β (2nd day) X ± SD / TFG-β (7th day) X ± SD: serum; for TFG-β (2nd day) X ± SD: dosing from 2nd day; for TFG-β (7th day) X ± SD: dosing from 7th day; for serum levels of TGF-β (words): treatment initiated one day or seven days after bleomycin
Experimental: TFG-β Kit, Human 96T ELISA kit imported by Shanghai Jingmei
as §1, §2, §3

[5] = asiatic acid high dose (27 mg/kg)
[6] = asiatic acid low dose (3 mg/kg)
[7] = asiatic acid middle dose (9 mg/kg)

## C[C@H]1[C@H](C)CC[C@]2(C(=O)O)CC[C@]3(C)C(=CC[C@@H]4[C@@]5(C)C[C@@H](O)[C@H](O)[C@@](C)(CO)[C@@H]5CC[C@]43C)[C@H]12 [Asiatic acid, asiatic acid]
[1]; [5]
  collagen fiber and elastic fiber staining: only a little fibroplastic proliferation
  lung pathology, HE staining: mild infiltration of inflammatory cells
[1]; asiatic acid high-dose group
  efficacy by pathology compared with asiaticoside group: better than in the asiaticoside group
[1]; [6]
  lung pathology, HE staining: mild inflammation and alveolitis
[1]; [7]
  collagen fiber and elastic fiber staining: significantly milder than that of the model group
  lung pathology, HE staining: mild infiltration of inflammatory cells
[1]; overall statement
  bleomycin-induced lung fibrosis by lung histopathology: effective against bleomycin-induced pulmonary fibrosis, on a dose-response basis; also recorded: reduces the extent of bleomycin-induced lung fibrosis
[1]; treatment initiated seven days after bleomycin insult
  lung fibrosis by histopathology compared with dexamethasone: more effective than dexamethasone
[2]; Asiatic acid-H (27 mg/kg p.o. x 28 d), dosing started on 2nd day, 13 on day 7
  remaining samples at the end of study: 13
[2]; Asiatic acid-H (27 mg/kg p.o. x 28 d), dosing started on 2nd day, days 7-28
  number of deaths: 0
[2]; Asiatic acid-H (27 mg/kg p.o. x 28 d), dosing started on 7th day
  number of deaths: 0
[2]; Asiatic acid-H (27 mg/kg p.o. x 28 d), dosing started on 7th day, 13 in the group
  remaining samples at the end of study: 13
[2]; Asiatic acid-L (3 mg/kg p.o. x 28 d), dosing started on 2nd day, 13 on day 7
  remaining samples at the end of study: 11
[2]; Asiatic acid-L (3 mg/kg p.o. x 28 d), dosing started on 2nd day, days 7-28
  number of deaths: 2
[2]; Asiatic acid-L (3 mg/kg p.o. x 28 d), dosing started on 7th day
  number of deaths: 1
[2]; Asiatic acid-L (3 mg/kg p.o. x 28 d), dosing started on 7th day, 13 in the group
  remaining samples at the end of study: 12
[2]; Asiatic acid-M (9 mg/kg p.o. x 28 d), dosing started on 2nd day, 14 on day 7
  remaining samples at the end of study: 13
[2]; Asiatic acid-M (9 mg/kg p.o. x 28 d), dosing started on 2nd day, days 7-28
  number of deaths: 1
[2]; Asiatic acid-M (9 mg/kg p.o. x 28 d), dosing started on 7th day
  number of deaths: 1
[2]; Asiatic acid-M (9 mg/kg p.o. x 28 d), dosing started on 7th day, 13 in the group
  remaining samples at the end of study: 12
[2]; rats treated with bleomycin, treatment initiated one day or seven days after bleomycin
  survival / bleomycin-induced death: largely prevented bleomycin-induced death; also recorded: significantly enhance survival
[3]; MeOH, single preparations (inj 1A-1C), listed as Asiatic acid raw material
  Solubility: 37.20 mg/mL and 34.87 mg/mL
[3]; methanol
  solubility in methanol: good solubility
[3]; methanol, organic solvent or mixture, thermodynamic from solid, MeOH, single preparations (inj 1A-1C), read-out: Solubility
  Solubility: 27.2 mg/mL (≈ 55700 µM)
[3]; water, thermodynamic from solid, water, read-out: Solubility in water
  Solubility: 0.03 mg/mL (≈ 61.4 µM)
[3]; water, thermodynamic from solid, water, single preparations (inj 1A-1C), read-out: Solubility
  Solubility: 0.03 mg/mL (≈ 61.4 µM)
[3]; water, single preparations (inj 1A-1C), listed as Asiatic acid raw material
  Solubility: 0.04 mg/mL and 0.02 mg/mL
TNF-α; asiatic acid 3 mg/kg
  TNF-α (2nd day) X ± SD: 0.055 ± 0.008 OD value
  TNF-α (7th day) X ± SD: 0.084 ± 0.018 OD value
TNF-α; asiatic acid 9 mg/kg
  TNF-α (2nd day) X ± SD: 0.056 ± 0.016 OD value
  TNF-α (7th day) X ± SD: 0.096 ± 0.036 OD value
TNF-α; asiatic acid 27 mg/kg
  TNF-α (2nd day) X ± SD: 0.050 ± 0.007 OD value
  TNF-α (7th day) X ± SD: 0.047 ± 0.013 OD value
TNF-α
  serum levels of TNF-α (words): significantly reduces
TNF-α; listed as asiatic acid
  serum levels of TNF-α (words): can lower
[4]; asiatic acid 3 mg/kg, started 7 day after model established
  lung weight ratio (%): 0.83** %
[4]; asiatic acid 3 mg/kg, started from the second day
  lung weight ratio (%): 0.84** %
[4]; asiatic acid 9 mg/kg, started 7 day after model established
  lung weight ratio (%): 0.82** %
[4]; asiatic acid 9 mg/kg, started from the second day
  lung weight ratio (%): 0.78** %
[4]; asiatic acid 27 mg/kg, started 7 day after model established
  lung weight ratio (%): 0.73** %
[4]; asiatic acid 27 mg/kg, started from the second day
  lung weight ratio (%): 0.69** %
[4]; asiatic acid 3 mg/kg, 28-day administration started 7 day after model established
  lung weight (g) X ± SD: 2.64 ± 0.33 g
[4]; asiatic acid 3 mg/kg, 28-day administration started from the second day
  lung weight (g) X ± SD: 2.74 ± 0.54 g
[4]; asiatic acid 9 mg/kg, 28-day administration started 7 day after model established
  lung weight (g) X ± SD: 2.69 ± 0.53 g
[4]; asiatic acid 9 mg/kg, 28-day administration started from the second day
  lung weight (g) X ± SD: 2.49 ± 0.40 g
[4]; asiatic acid 27 mg/kg, 28-day administration started 7 day after model established
  lung weight (g) X ± SD: 2.52 ± 0.25 g
[4]; asiatic acid 27 mg/kg, 28-day administration started from the second day
  lung weight (g) X ± SD: 2.41 ± 0.38 g
[4]; starting on 2nd or 7th day, compared with the model group
  lung weight to body weight ratio: significantly lower; also recorded: significantly decrease bleomycin-induced lung fibrosis
Type III collagen; asiatic acid Medium dose (9 mg/kg)
  Type III collagen content X ± SD: 0.515 ± 0.398
Type III collagen; [5]
  Type III collagen content X ± SD: 0.387 ± 0.287
Type III collagen; [6]
  Type III collagen content X ± SD: 0.764 ± 0.826
Type III collagen; overall statement
  serum levels of type III collagen: significantly decrease bleomycin-induced fibrosis
Hydroxyproline; asiatic acid 3 mg/kg
  Measured Value of Hydroxyproline (on 2nd day), X: 24.31
  Measured Value of Hydroxyproline (on 7th day), X: 25.65
  Measured Value of Hydroxyproline (on 2nd day), single animals: 19.57 and 28.21 and 24.03 and 19.66 and 25.61 and 26.55 and 26.34 and 24.09 and 19.07 and 29.99
  Measured Value of Hydroxyproline (on 7th day), single animals: 20.31 and 27.14 and 28.27 and 26.14 and 28.01 and 29.34 and 25.07 and 25.36 and 25.47 and 21.37
Hydroxyproline; asiatic acid 9 mg/kg
  Measured Value of Hydroxyproline (on 2nd day), X: 22.94
  Measured Value of Hydroxyproline (on 7th day), X: 25.21
  Measured Value of Hydroxyproline (on 2nd day), single animals: 28.26 and 15.05 and 29.14 and 28.98 and 27.69 and 19.03 and 19.46 and 18.22 and 24.01 and 19.56
  Measured Value of Hydroxyproline (on 7th day), single animals: 28.19 and 24.39 (2×) and 27.98 and 28.36 and 19.36 and 24.64 and 25.66 and 29.47 and 19.66
Hydroxyproline; asiatic acid 27 mg/kg
  Measured Value of Hydroxyproline (on 2nd day), X: 21.65
  Measured Value of Hydroxyproline (on 7th day), X: 23.40
  Measured Value of Hydroxyproline (on 2nd day), single animals: 17.64 and 25.36 and 25.18 and 24.36 and 20.19 and 18.6 and 19.36 and 20.97 and 27.69 and 17.11
  Measured Value of Hydroxyproline (on 7th day), single animals: 19.68 and 19.47 and 20.14 and 24.36 (2×) and 27.14 and 25.1 and 26.38 and 27.66 and 19.74
Hydroxyproline; overall statement
  serum levels of hydroxyproline: significantly decrease bleomycin-induced fibrosis
TFG-β; asiatic acid 3 mg/kg
  TFG-β (2nd day) X ± SD: 0.726 ± 0.220 OD value
  TFG-β (7th day) X ± SD: 1.494 ± 0.273 OD value
TFG-β; asiatic acid 9 mg/kg
  TFG-β (2nd day) X ± SD: 0.642 ± 0.139 OD value
  TFG-β (7th day) X ± SD: 1.165 ± 0.412 OD value
TFG-β; asiatic acid 27 mg/kg
  TFG-β (2nd day) X ± SD: 0.653 ± 0.157 OD value
  TFG-β (7th day) X ± SD: 1.049 ± 0.363 OD value
TFG-β
  serum levels of TGF-β (words): significantly reduces
TFG-β; listed as asiatic acid
  serum levels of TGF-β (words): can lower
